One assay deals with A549. In words: viability loss in A549 cells – cell-based, plate reader, cherry-pick samples, cytotoxicity control, dose response (AID 687028). Format: functional. The conditions noted are these: Homo sapiens.
A short description of assay [1]: cervical cancer cell viability loss – HeLa, 24 h, plate reader, powder samples, set 3, cytotoxicity control, dose response (AID 651864). Format: functional, cell-based.
The nature of assay [2]: activation of miR-122 Renilla sensor silencing – cell-based, Huh7 psiCHECK-miR122, Renilla luciferase, cherry-picked, dose response (AID 651956).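 Also: huh7 hepatoma cells stably carrying a psiCHECK-2 miR-122 sensor plasmid; renilla luciferase signal reporting endogenous miR-122 activity after 48 h compound exposure.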 Format: functional.
The nature of assay [3]: miR-122Act:qPCR miR-122 Measured in Cell-Based System Using RT-PCR - 2144-04_Activator_Dose_CherryPick_Activity. (absACnn = the concentration at which the curve crosses threshold nn uM). Format: functional.
Assay [4] addresses ATP-dependent translocase ABCB1 (Homo sapiens, UniProt P08183). As to the kind of experiment: inhibition of P-gp mediated JC-1 efflux – Jurkat-DNR cells, flow cytometry, dose response (AID 1689). Format: functional. (In general: Flow cytometry measures light scatter and fluorescence of single cells or particles in a stream.)
The target of assay [5] is Broad substrate specificity ATP-binding cassette transporter ABCG2 (Homo sapiens, UniProt Q9UNQ0). In words: blockers of JC-1 export by ABCG2 – Ig-MXP3 cells, flow cytometry, dose response (AID 1690). Format: functional.
Chain of Broad substrate specificity ATP-binding cassette transporter ABCG2 (Q9UNQ0 whole entry): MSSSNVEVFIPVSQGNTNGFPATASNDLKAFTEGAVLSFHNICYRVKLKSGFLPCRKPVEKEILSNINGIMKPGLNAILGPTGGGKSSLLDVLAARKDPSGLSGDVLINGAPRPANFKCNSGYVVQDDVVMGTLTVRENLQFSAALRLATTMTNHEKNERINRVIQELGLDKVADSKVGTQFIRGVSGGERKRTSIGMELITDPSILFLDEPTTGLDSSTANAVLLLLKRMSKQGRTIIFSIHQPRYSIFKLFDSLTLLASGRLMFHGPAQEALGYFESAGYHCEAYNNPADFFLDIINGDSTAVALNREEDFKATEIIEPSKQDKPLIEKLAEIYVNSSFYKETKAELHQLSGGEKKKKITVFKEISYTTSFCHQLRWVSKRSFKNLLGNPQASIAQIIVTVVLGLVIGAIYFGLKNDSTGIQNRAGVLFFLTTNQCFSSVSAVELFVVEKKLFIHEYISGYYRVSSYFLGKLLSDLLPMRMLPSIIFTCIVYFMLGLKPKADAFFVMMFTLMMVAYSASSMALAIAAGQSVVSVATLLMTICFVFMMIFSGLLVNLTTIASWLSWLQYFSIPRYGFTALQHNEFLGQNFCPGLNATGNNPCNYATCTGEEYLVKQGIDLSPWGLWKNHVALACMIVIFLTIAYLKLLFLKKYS
Assay [6] addresses Potassium channel subfamily K member 9 (Homo sapiens, UniProt Q9NPC2). In words: KCNK9 flux blockade, concentration-response – cell-based, FluxOR thallium flux, selectivity assay for TASK1 inhibitor project, SAR follow-up (AID 652211).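 Also: potency is for inhibitors of the channel.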 Format: functional.
Assay [7] addresses Potassium channel subfamily K member 3 (Homo sapiens, UniProt O14649). In words: inhibition of human KCNK3 channel flux – CHO cells, FluxOR thallium flux, SAR follow-up (AID 652212). Format: functional.
Assay [8] has as its target T1, Voltage-gated N-type calcium channel alpha-1B subunit/Amyloid beta A4 precursor protein-binding family A member 1 (Homo sapiens, UniProt Q00975+Q02410). Format: protein assay.
Assay [9] addresses T1, Voltage-gated N-type calcium channel alpha-1B subunit/Amyloid beta A4 precursor protein-binding family A member 1. Format: protein assay. This is another data set of the same source.
For assay [10], the target named is Glucose-6-phosphate 1-dehydrogenase (Homo sapiens, UniProt P11413). As to the kind of experiment: inhibition of Homo sapiens G6PD, dose series – biochemical, fluorescence, selectivity assay for P. falciparum G6PD inhibitor project, dose response (AID 504792). Format: functional.
Chain of Glucose-6-phosphate 1-dehydrogenase (P11413 whole entry): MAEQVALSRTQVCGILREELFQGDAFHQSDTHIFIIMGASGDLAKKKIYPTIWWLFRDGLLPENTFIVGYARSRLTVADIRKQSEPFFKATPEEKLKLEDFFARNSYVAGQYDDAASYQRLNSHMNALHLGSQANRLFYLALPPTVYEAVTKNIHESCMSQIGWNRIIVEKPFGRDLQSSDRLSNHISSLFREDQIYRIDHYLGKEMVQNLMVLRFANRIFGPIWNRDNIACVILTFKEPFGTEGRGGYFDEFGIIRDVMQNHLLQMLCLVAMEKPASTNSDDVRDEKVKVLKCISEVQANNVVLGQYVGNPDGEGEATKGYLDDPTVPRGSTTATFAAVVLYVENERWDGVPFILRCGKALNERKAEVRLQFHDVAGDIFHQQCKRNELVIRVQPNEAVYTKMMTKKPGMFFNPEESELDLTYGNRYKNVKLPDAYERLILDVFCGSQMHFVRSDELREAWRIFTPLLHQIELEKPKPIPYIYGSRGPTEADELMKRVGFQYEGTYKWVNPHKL
For assay [11], the target named is T2, Sentrin-specific protease 8 (Homo sapiens, UniProt Q96LD8).
T2 sequence (Q96LD8 whole entry): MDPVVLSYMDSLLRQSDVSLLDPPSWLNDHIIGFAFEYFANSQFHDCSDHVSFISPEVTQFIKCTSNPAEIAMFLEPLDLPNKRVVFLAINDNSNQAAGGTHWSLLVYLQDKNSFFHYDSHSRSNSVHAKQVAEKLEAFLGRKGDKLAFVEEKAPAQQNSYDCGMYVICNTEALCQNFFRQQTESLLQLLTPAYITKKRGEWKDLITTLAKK
Format: functional.

Assay [12] has as its target T2, Sentrin-specific protease 8. Format: functional. This is another data set of the same source.
The target in another assay is fMet-Leu-Phe receptor (Homo sapiens, UniProt P21462). As to the kind of experiment: formyl peptide receptor binders – dose response (AID 519). Format: functional.
Chain of fMet-Leu-Phe receptor (P21462 whole entry): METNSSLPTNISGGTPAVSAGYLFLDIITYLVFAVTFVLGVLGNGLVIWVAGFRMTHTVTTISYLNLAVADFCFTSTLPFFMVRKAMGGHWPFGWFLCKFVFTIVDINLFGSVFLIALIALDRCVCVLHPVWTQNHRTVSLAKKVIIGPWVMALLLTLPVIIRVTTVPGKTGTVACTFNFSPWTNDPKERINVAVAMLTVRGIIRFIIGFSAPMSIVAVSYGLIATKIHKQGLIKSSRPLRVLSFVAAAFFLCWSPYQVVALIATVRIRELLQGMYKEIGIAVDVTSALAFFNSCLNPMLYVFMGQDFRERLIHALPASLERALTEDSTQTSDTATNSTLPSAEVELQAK
Assay [13] can be described thus: viability loss in THP-1 monocytes – THP-1 cells, cytotoxicity control for Vif-APOBEC3G degradation inhibitor project, dose response (AID 1117359). Format: functional. To be noted: THP-1.
In assay [14] the target is Induced myeloid leukemia cell differentiation protein Mcl-1 (Homo sapiens, UniProt Q07820). Format: functional.
A short description of assay [15]: cells. To be noted: A549.
The nature of assay [16]: reduced cellular PGC1a acetyl-lysine signal – cell-based, cherry-picked samples, dose response (AID 720514).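 Also: potency may reflect raised or lowered acetylation signal.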 Format: functional.
The nature of assay [17]: liver cell line viability loss – HepG2, luminescence plate reader, powder samples, set 2, cytotoxicity control, dose response (AID 651860). Format: functional, cell-based.
Assay [18] can be described thus: viability loss in HEK293 cells – cell-based, plate reader, cherry-picked samples, cytotoxicity control, dose response (AID 743446). Format: functional.
For a further assay, the system named is INS1. In words: INS-1E survival protection against cytokine death – cell-based, luminescence, retest, dose response (AID 449756).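 Also: cell death triggered by IL-1 beta plus TNF-alpha plus IFN-gamma mixture; protective hits raise ATP signal compared with cytokine alone wells.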 Format: functional. The conditions noted are these: Rattus norvegicus.
A short description of assay [19]: cells. Format: functional, cell-based.
Assay [20] concerns BJ. In words: cells. Format: functional, cell-based. To be noted: Homo sapiens.
A short description of assay [21]: DRD fibroblast viability loss – cell-based, non-viral oncogenic, luminescence, dose response (AID 1934). Format: functional. The conditions noted are these: Homo sapiens.
Assay [22] in a line: A549 cell cytotoxicity, dose response, cytotoxicity control, plate reader, cherry-pick, antagonist series (AID 743412). Format: functional, cell-based.
Assay [23] in a line: Luminescence Cell-Based Dose Confirmation HTS to Identify Inhibitors of Platelet Dense Granule Release. [Related pubchem assays: 1663 (Primary HTS), 1678 (Summary of Project)]. Format: functional.
Assay [24] can be described thus: cells. Format: functional, cell-based. This is another data set of the same source.
The target of assay [25] is Luciferin 4-monooxygenase (Photinus pyralis, UniProt P08659). In words: inhibition of purified Photinus pyralis luciferase – biochemical, luminescence, dose response (AID 1891).
Assay [26] deals with BJ. As to the kind of experiment: BJ-TERT-LT-ST fibroblast viability loss – cell-based, RAS-independent, luminescence, dose response (AID 1935).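 Also: BJ fibroblasts immortalized with TERT plus LT and ST oncogenes.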 Format: functional. To be noted: Homo sapiens.
The test system of assay [27] is BJ. As to the kind of experiment: BJ-TERT fibroblast viability loss – cell-based, RAS-independent, luminescence, dose response (AID 1933). Format: functional. The conditions noted are these: Homo sapiens.
A short description of assay [28]: blockade of melanocortin 4 receptor signaling – cell-based, plate reader, cherry pick, counter-screen for LGR2 antagonist project, dose response (AID 743444).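 Also: transfected HEK 293 cells stimulated with alpha-MSH peptide; potency of inhibitors of the alpha-MSH evoked signal.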 Format: functional. A general note: The purpose of a counterscreen is to sort out artefacts and off-target activity.
Assay [29] in a line: blockers of bursicon-stimulated LGR2 cAMP reporter – cell-based, HEK293, CRE-luciferase reporter, cherry pick, set 2, dose response (AID 743343).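 Also: transfected cells were stimulated with diluted bursicon conditioned medium after compound addition.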 Format: functional. (In general: In a reporter assay the amount or activity of a reporter protein is the signal.)
Assay [30] is described as follows: toxicity toward HepG2 liver cells – cell-based, plate reader, cherry-pick, antagonist series, cytotoxicity control, dose response (AID 743416). Format: functional.
Assay [31] can be described thus: T. cruzi growth inhibition in host cells, dose response, cell-based, plate reader, dry powder, set 2 (AID 652275). Format: functional.

What is called AC50 is the concentration at which the activity in the assay is half-maximal. The term EC50 denotes the concentration at which the effect is half-maximal. Usually IC50 stands for the concentration that gives 50% inhibition. For orientation: Ki means the dissociation constant of the complex between target and ligand, obtained from inhibition or displacement. The CC50 is the concentration giving 50% cytotoxicity.

Structures are written as SMILES. The source made the active and inactive calls.

T1 sequence (Q00975 whole entry): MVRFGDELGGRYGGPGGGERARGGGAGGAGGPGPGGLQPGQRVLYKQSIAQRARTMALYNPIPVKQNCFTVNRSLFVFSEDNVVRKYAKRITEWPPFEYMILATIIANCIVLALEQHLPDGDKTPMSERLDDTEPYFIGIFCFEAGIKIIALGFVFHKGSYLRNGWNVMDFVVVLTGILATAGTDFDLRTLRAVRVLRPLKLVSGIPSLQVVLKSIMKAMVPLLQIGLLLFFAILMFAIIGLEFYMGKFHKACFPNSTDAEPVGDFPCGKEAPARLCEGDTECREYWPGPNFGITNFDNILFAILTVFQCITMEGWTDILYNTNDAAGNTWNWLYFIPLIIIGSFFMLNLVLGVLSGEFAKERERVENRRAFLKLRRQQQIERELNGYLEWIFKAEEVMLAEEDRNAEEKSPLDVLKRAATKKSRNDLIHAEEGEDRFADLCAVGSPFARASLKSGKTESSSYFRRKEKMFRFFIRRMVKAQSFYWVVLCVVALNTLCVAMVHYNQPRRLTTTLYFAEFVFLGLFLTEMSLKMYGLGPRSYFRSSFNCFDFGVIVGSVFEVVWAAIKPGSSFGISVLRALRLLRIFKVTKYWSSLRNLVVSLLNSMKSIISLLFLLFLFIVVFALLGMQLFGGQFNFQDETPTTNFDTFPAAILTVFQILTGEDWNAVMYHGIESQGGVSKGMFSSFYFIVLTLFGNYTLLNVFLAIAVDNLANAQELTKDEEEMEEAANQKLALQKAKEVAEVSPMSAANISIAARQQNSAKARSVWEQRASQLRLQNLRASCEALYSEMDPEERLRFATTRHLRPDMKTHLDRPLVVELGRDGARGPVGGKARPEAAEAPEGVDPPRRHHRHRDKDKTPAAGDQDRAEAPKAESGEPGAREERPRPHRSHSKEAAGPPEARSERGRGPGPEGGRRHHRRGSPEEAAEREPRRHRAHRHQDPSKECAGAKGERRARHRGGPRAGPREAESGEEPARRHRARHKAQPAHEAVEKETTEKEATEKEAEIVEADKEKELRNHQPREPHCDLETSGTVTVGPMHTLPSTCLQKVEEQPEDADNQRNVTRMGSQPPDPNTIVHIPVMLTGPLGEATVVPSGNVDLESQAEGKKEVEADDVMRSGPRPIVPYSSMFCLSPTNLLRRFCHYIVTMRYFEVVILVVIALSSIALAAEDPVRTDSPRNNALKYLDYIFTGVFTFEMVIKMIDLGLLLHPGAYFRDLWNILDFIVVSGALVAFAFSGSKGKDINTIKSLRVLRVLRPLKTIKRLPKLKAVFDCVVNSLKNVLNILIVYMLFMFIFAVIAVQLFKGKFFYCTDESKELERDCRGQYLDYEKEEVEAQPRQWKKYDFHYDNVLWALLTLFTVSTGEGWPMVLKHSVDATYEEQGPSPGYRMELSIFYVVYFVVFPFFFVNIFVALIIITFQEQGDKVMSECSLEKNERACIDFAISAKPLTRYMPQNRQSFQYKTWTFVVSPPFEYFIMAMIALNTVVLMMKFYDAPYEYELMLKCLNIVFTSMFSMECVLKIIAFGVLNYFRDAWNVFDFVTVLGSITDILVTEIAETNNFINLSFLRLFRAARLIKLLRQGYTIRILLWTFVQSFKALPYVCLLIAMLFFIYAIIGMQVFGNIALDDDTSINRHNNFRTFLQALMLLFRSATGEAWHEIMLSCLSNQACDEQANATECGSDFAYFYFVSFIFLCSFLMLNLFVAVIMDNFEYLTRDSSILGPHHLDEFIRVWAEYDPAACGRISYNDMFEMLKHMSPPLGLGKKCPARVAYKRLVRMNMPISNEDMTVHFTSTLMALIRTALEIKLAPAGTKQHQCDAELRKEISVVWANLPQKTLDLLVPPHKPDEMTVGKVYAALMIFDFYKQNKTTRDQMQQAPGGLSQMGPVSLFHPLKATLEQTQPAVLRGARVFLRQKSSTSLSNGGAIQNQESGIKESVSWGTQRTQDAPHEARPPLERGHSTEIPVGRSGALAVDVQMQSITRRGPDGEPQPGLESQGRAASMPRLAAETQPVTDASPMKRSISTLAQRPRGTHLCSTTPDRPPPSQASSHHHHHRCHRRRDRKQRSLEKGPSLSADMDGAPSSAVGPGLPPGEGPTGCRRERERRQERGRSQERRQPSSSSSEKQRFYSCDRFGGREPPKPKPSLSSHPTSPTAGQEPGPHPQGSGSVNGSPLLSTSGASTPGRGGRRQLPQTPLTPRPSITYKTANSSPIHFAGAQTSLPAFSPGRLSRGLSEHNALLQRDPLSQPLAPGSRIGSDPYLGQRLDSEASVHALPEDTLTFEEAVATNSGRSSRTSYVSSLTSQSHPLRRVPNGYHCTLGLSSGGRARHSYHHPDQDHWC
T1 sequence (Q02410 whole entry): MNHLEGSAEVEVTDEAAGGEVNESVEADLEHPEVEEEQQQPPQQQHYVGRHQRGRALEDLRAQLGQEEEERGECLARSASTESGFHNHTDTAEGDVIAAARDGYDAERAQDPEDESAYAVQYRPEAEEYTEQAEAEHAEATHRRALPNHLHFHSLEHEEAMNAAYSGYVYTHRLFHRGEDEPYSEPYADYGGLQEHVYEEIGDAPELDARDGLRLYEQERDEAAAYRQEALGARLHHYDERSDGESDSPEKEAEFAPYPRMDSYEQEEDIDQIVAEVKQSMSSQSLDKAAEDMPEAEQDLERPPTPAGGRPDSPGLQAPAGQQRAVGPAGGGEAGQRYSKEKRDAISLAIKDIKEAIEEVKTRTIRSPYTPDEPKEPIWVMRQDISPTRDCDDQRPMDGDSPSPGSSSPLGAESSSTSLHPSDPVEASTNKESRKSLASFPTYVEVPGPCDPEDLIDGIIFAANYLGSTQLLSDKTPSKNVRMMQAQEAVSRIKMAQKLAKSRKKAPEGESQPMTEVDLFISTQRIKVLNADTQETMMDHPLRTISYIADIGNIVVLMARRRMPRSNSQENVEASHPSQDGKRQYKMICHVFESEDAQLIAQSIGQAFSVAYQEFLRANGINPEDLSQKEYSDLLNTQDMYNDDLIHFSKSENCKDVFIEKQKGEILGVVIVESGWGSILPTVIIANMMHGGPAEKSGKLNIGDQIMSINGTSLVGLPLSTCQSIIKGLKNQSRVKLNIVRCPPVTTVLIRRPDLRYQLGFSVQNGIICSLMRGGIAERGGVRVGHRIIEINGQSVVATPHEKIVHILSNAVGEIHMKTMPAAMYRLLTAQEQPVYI
Chain of Potassium channel subfamily K member 9 (Q9NPC2 whole entry): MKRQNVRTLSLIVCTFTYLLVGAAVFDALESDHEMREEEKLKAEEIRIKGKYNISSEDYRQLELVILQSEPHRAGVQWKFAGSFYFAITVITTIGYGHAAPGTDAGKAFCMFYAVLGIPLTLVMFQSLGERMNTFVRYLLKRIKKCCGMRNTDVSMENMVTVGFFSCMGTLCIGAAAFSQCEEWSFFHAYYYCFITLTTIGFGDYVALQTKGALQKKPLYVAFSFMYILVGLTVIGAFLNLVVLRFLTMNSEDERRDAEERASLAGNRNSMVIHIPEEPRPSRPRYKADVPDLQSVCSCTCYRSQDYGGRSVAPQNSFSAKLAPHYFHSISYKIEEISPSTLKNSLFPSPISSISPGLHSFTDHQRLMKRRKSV

As to `COc1ccc(-c2cc(NC=O)c3ncc(-c4cc(OC)c(OC)c(OC)c4)n3c2)c(OC)c1`, the AC50 in the assay on A549 is 13.6 µM (active).
For the compound `CCCn1nnnc1NCc1ccc(N2CCCC2)cc1`, the AC50 in assay [1] is > 160 µM (inactive).
For `Cc1cccc(NC(=O)Nc2ccc3c(c2)C(=O)N(C)[C@@H]2CC[C@H](CC(=O)NCc4ccccc4Cl)O[C@H]2CO3)c1`, the half-maximal activity concentration (AC50) in assay [2] was 9.59 µM (active). This compound yielded an AbsAC40_uM in [3] of 8.38 µM.
Consider `N#Cc1ccc(COC(=O)c2ccc(N3CCCC3)c([N+](=O)[O-])c2)cc1`, for which the values for the EC50 in assay [4] and in assay [5] were 12 µM (inactive) and 0.45 µM (inactive), respectively.
For the compound `CCOc1ccccc1NC(=O)c1cccc(NC(=O)C2CC2)c1`, the 50% inhibitory concentration (IC50) in assay [6] was 10.2 µM (active); in [7], 1.07 µM (active).
With `COc1ccc2ccccc2c1C1CC(=O)N2CN(C3CCCCC3)CSC2=C1C#N` (centres undefined), the IC50 in [8] was > 56.8 µM (not active); in assay [9], > 50 µM (inactive); in [10], > 80 µM (inactive); in assay [11], 5.43 µM (active); in [12], 0.632 µM (active). For the same compound, on fMet-Leu-Phe receptor, the Ki was 19.7 µM (inactive).
Consider `Cc1cccn2c(=O)c3cc(C(=O)NCc4ccco4)c(=N)n(CCc4ccccc4)c3nc12`, for which the CC50 in [13] was 38.1 µM (active). In assay [14], the IC50 is 3.57 µM (active). Also, the AC50 was 39.9 µM (active) in the assay “cells [15]” and 28.4 µM (active) in assay [16].
Take `O=C(O)[C@@H]1CCCC[C@@H]1C(=O)N1CCc2ccccc2[C@@H]1CN1C(=O)c2ccccc2C1=O`: in assay [17], the AC50 is > 52 µM (inactive).
`Cc1nc2cc(-c3ccccc3)sc2c(=O)n1N`: the AC50 is 5.12 µM (active) in assay [18]; 3.95 µM (active) in the assay with INS1; 5.97 µM (active) in assay [22]; 1.17 µM (active) in assay [28]; 0.868 µM (active) in [29]; 5.13 µM (active) in assay [30]. In addition, the EC50 in the assay “cells [19]” was 7.12 µM (active); with BJ [20] it was 2.32 µM (inconclusive); in assay [21] it was 3.78 µM (active); in assay [23], 0.365 µM (active); in “cells [24]”, > 350 µM (not active); in [25], 0.546 µM (active). Moreover, the EC50 in the assay on BJ [26] is 12 µM (active); with BJ [27], 5.93 µM (active).
On to `C[C@H]1CN([C@@H](C)CO)C(=O)c2cccc(NC(=O)c3ccncc3)c2O[C@@H]1CN(C)Cc1cccc(Cl)c1Cl`, for which, in [31], the AC50 is 0.0255 µM (active).
